We go through one molecule from US20080119513A1, “Sulfonamide Derivative Selectively Inhibiting Mmp-13” (priority 2004, published 2008).

For experiment [1], the target named is T1, MMP-2 (Homo sapiens, UniProt P08253).
T1 sequence (P08253 110-660): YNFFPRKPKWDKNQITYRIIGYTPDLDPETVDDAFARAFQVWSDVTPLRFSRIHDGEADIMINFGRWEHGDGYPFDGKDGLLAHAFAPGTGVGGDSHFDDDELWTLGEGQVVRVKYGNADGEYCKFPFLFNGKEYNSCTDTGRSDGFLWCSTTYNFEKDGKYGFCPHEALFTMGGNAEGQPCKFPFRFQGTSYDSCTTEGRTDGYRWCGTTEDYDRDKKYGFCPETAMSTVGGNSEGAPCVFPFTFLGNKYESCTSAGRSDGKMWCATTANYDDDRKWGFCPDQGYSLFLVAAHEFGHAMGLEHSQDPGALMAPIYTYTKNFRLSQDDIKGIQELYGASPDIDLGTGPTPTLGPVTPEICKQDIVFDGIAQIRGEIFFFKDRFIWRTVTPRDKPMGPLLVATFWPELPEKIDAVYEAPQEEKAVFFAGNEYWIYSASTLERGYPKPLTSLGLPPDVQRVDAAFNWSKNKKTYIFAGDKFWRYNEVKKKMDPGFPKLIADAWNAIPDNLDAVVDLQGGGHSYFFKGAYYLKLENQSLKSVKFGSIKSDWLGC
Description: Assay for inhibitory activities on MMPs (fluorogenic peptide substrate), MMP-2. It counts as biochemical. In outline: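 Human MMP-2 activity measured with fluorogenic MOCAc-Pro-Leu-Gly-Leu-A2Pr(DNP)-Ala-Arg-NH2 substrate. Percent inhibition derived from fluorescence with and without enzyme and inhibitor, corrected for substrate and inhibitor background. IC50 taken as concentration giving 50% inhibition.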

For experiment [2], the target named is T2, MMP-8 (Homo sapiens, UniProt P22894).
T2 construct: In regard to MMP-8, catalytic domain (^99Phe˜^262Gly) was amplified with PCR; His-tag; enterokinase digestion-site
Description: Assay for inhibitory activities on MMPs (fluorogenic peptide substrate), MMP-8. It counts as biochemical. In outline:
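Human MMP-8 catalytic domain (Phe99–Gly262), His-tagged, E. coli-expressed, urea-solubilised, refolded. Fluorogenic substrate MOCAc-Pro-Leu-Gly-Leu-A2Pr(DNP)-Ala-Arg-NH2; fluorescence read with enzyme/inhibitor, substrate/inhibitor, enzyme-only and substrate-only wells. % inhibition = {1-(A−B)/(C−D)}×100; IC50 is concentration giving 50% inhibition.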

Experiment [3] concerns the target MMP-9 (Homo sapiens, UniProt P14780). Description: Assay for inhibitory activities on MMPs (fluorogenic peptide substrate), MMP-9. It counts as biochemical. An outline of the steps:
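ProMMP-9 purified from TPA-stimulated HT1080 cells and activated with TPCK-trypsin, assayed with fluorogenic MOCAc-Pro-Leu-Gly-Leu-A2Pr(DNP)-Ala-Arg-NH2. Percent inhibition from fluorescence of reactions with and without enzyme and inhibitor; IC50 as concentration giving 50% inhibition.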

The target of experiment [4] is T3, MMP-12 (Homo sapiens, UniProt P39900).
T3 construct: In regard to MMP-12, catalytic domain (^100Phe˜^263Gly) was amplified with RT-PCR; His-tag; enterokinase digestion-site
Description: Assay for inhibitory activities on MMPs (fluorogenic peptide substrate), MMP-12. The experiment is classed as biochemical. In outline:
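Refolded His-tagged human MMP-12 catalytic domain (Phe100–Gly263) expressed in E. coli, assayed with fluorogenic substrate MOCAc-Pro-Leu-Gly-Leu-A2Pr(DNP)-Ala-Arg-NH2. Percent inhibition calculated from fluorescence with and without enzyme and inhibitor, corrected for inhibitor-only and substrate-only blanks; IC50 is concentration giving 50% inhibition.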

The test system of experiment [5] is Rat osteoarthritis model. Description: Inhibition of disease progression in the rat osteoarthritis model. The conditions noted are these: female SD rats, medial meniscectomy and collateral ligament transection; 10 mg/kg orally twice daily for 6 weeks. It counts as in vivo. On the procedure: Rat osteoarthritis model was prepared according to the procedure reported by Meacock et al. (J. Exp. Path. 71, 279-293, 1990), by medial meniscectomy and collateral ligament transection on the right knee of 12 weeks old female SD rats (Charles River Japan). 0.5% methylcellulose or compounds (II-3) or (III-11) (10 mg/kg) were orally administered twice daily from the following day of the surgery for 6 weeks.
On the next day of final administration, tibial plateaus were removed. The surfaces of the tibial plateau were stained with India ink (Kuretake), and then photographed using a digital camera (Nikon). The progressive level of OA lesion was scored using a photographic image thereof.

Chain of MMP-9 (P14780 107-707): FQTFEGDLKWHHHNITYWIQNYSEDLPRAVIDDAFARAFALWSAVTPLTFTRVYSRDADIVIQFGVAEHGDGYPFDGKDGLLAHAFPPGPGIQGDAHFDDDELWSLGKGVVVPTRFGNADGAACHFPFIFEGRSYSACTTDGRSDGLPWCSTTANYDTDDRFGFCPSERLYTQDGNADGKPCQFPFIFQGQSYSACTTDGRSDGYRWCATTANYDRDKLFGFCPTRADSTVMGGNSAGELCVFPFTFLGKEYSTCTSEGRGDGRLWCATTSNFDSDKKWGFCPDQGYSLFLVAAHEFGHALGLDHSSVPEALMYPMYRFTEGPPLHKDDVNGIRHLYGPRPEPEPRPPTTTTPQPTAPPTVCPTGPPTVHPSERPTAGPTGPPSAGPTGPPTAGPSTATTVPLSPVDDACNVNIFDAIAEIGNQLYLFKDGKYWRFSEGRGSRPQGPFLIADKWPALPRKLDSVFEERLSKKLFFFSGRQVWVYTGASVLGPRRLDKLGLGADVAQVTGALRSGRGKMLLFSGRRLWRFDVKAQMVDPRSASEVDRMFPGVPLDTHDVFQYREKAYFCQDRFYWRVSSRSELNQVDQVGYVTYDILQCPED
T2 sequence (P22894 99-262): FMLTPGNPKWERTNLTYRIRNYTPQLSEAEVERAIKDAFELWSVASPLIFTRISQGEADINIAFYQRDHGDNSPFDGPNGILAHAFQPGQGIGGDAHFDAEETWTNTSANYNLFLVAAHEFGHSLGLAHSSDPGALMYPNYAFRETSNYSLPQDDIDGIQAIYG
T3 sequence (P39900 100-263): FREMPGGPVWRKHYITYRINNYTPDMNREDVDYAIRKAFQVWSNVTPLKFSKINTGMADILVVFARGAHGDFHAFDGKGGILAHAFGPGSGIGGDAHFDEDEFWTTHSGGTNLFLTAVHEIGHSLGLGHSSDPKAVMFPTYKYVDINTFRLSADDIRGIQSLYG

As usually defined, the IC50 is the point on the concentration scale where inhibition reaches its midpoint. On to `O=C(O)[C@@H](Cc1ccccc1)NS(=O)(=O)c1ccc(-c2ccc(C#Cc3ccc4ccccc4c3)cc2)cc1` [III-11], for which the half-inhibitory concentration (IC50) is 163 nM in experiment [1], 128 nM in experiment [2], greater than 10000 nM in experiment [3] and 2000 nM in experiment [4]. In experiment [5], the “inhibitory activities (progressive level of OA lesion, scored)” value stood at 77.2%.
